Experiments:
Type in all cases: in vivo
Agrostis tenuis (AGSTE) = assay: Herbicidal early post-emergence action (Table A1); details: 1900 g/ha; scored visually 9 to 12 days after treatment; 100% = plants have died, 0% = like control plants
Description: (§1) Seeds of monocotyledonous and dicotyledonous weed plants were placed in 96-well microtiter plates in quartz sand and grown in a climatized chamber under controlled growth conditions. 5 to 7 days after sowing, the test plants were treated at the cotyledon stage. The compounds according to the invention, formulated in the form of emulsion concentrates (EC), were applied with a water application rate of the equivalent of 2200 liters per hectare. After the test plants had been left to stand in the climatized chamber for 9 to 12 days under optimum growth conditions, the effect of the preparations was scored visually in comparison to untreated controls. For example, 100% activity=the plants have died, 0% activity=like control plants. Tables A1 to A8 below show the effects of selected compounds of the general formula (I) according to Table 1 on various harmful plants and an application rate corresponding to 1900 g/ha, which were obtained by the experimental procedure mentioned above.

Poa annua (POAAN) [1] = assay: Herbicidal early post-emergence action (Table A3); details: 1900 g/ha; scored visually 9 to 12 days after treatment; 100% = plants have died, 0% = like control plants
Description: as §1

[2] = tested on: harmful plants AGSTE, DIPTE, LOLPE, MATCH, POAAN, SETVI, STEME and VERPE; assay: Herbicidal early post-emergence action, summary of Tables A1-A8; details: application rate of 1900 g of active ingredient per hectare; summary in words
Description: as §1, with “plants.” for “plants. Tables A1 to A8 below show the effects of selected compounds of the general formula (I) according to Table 1 on various harmful plants and an application rate corresponding to 1900 g/ha, which were obtained by the experimental procedure mentioned above.”
Tables A1 to A8 below show the effects of selected compounds of the general formula (I) according to Table 1 on various harmful plants and an application rate corresponding to 1900 g/ha, which were obtained by the experimental procedure mentioned above.
As the results of Tables A1-A8 show, compounds no.

Poa annua (POAAN) [3] = assay: Herbicidal post-emergence action (Table B3); details: rated visually after about 3 weeks, 100% = plants have died, 0% = like control plants
How it was run: (§2)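 Post-emergence spray, one-leaf stage (2–3 wk after sowing), sandy loam, greenhouse. WP/EC in water + 0.5% additive, 600 L/ha, 1280 or 320 g/ha. Visual % activity vs untreated after ~3 wk (0% = like control, 100% = plants dead).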

[4] = tested on: Abutilon theophrasti (ABUTH); assay: Herbicidal post-emergence action (Table B5); details: rated visually after about 3 weeks, 100% = plants have died, 0% = like control plants
How it was run: as §2

[5] = tested on: Amaranthus retroflexus (AMARE); assay: Herbicidal post-emergence action (Table B6); details: visual rating about 3 weeks after treatment, 100% = plants have died, 0% = like control plants
How it was run: as §2

[6] = tested on: Matricaria inodora (MATIN); assay: Herbicidal post-emergence action (Table B7); details: rated visually after about 3 weeks, 100% = plants have died, 0% = like control plants
Description: Seeds of mono- and dicotyledonous weed plants were placed in plastic pots in sandy loam soil (doubly sown with in each case one species of mono- or dicotyledonous weed plants per pot), covered with soil and cultivated in a greenhouse under controlled growth conditions. 2 to 3 weeks after sowing, the test plants were treated at the one-leaf stage. The compounds of the invention, formulated in the form of wettable powders (WP) or as emulsion concentrates (EC), were applied onto the green parts of the plants as aqueous suspension or emulsion with addition of 0.5% additive at a water application rate of 600 liters per hectare (converted). After the test plants had been kept in the greenhouse under optimum growth conditions for about 3 weeks, the activity of the preparations was rated visually in comparison to untreated controls. For example, 100% activity=the plants have died, 0% activity=like control plants. Tables B1 to B12 below show the effects of selected compounds of the general formula (I) according to Table 1 on various harmful plants and an application rate corresponding to 1280 or 320 g/ha, which were obtained by the experimental procedure mentioned above.

Stellaria media (STEME) [7] = assay: Herbicidal post-emergence action (Table B8); details: visual rating about 3 weeks after treatment, 100% = plants have died, 0% = like control plants
How it was run: as §2

[8] = tested on: Alopecurus myosuroides (ALOMY); assay: Herbicidal post-emergence action (Table B9); details: rated visually after about 3 weeks, 100% = plants have died, 0% = like control plants
How it was run: as §2

[9] = tested on: Digitaria sanguinalis (DIGSA); assay: Herbicidal post-emergence action (Table B10); details: dosage 1280 g/ha; visual rating about 3 weeks after treatment; 100% = plants have died, 0% = like control plants
How it was run: as §2

Bassia scoparia (KCHSC) [10] = assay: Herbicidal post-emergence action (Table B11); details: visual rating about 3 weeks after treatment, 100% = plants have died, 0% = like control plants
How it was run: as §2

Veronica persica (VERPE) [11] = assay: Herbicidal post-emergence action (Table B12); details: visual rating about 3 weeks after treatment, 100% = plants have died, 0% = like control plants
How it was run: as §2

Poa annua (POAAN) [12] = assay: Herbicidal pre-emergence action, test C (Table C3); details: visual scoring after about 3 weeks, 100% = plants have died, 0% = like control plants
How it was run: (§3)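 Greenhouse pre-emergence test: compound formulations (WP or EC) are applied at 1280 or 320 g/ha to the soil surface over sown weed seeds, with 0.5% additive in 600 L/ha water. After about 3 weeks, percent activity is assessed visually, 100% indicating dead plants.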

Setaria viridis (SETVI) = assay: Herbicidal pre-emergence action, test C (Table C4); details: visual scoring after about 3 weeks, 100% = plants have died, 0% = like control plants
How it was run: as §3

[13] = tested on: Abutilon theophrasti (ABUTH); assay: Herbicidal pre-emergence action, test C (Table C5); details: dosage 1280 g/ha; visual scoring after about 3 weeks; 100% = plants have died, 0% = like control plants
How it was run: as §3

[14] = tested on: Amaranthus retroflexus (AMARE); assay: Herbicidal pre-emergence action, test C (Table C6); details: visual scoring after about 3 weeks, 100% = plants have died, 0% = like control plants
How it was run: as §3

[15] = tested on: Matricaria inodora (MATIN); assay: Herbicidal pre-emergence action, test C (Table C7); details: visual scoring after about 3 weeks, 100% = plants have died, 0% = like control plants
How it was run: as §3

Stellaria media (STEME) [16] = assay: Herbicidal pre-emergence action, test C (Table C8); details: visual scoring after about 3 weeks, 100% = plants have died, 0% = like control plants
How it was run: as §3

[17] = tested on: Alopecurus myosuroides (ALOMY); assay: Herbicidal pre-emergence action, test C (Table C9); details: dosage 1280 g/ha; visual scoring after about 3 weeks; 100% = plants have died, 0% = like control plants
How it was run: as §3

[18] = tested on: Digitaria sanguinalis (DIGSA); assay: Herbicidal pre-emergence action, test C (Table C10); details: visual scoring after about 3 weeks, 100% = plants have died, 0% = like control plants
How it was run: as §3

Bassia scoparia (KCHSC) [19] = assay: Herbicidal pre-emergence action, test C (Table C11); details: dosage 1280 g/ha, visual scoring vs untreated controls
How it was run: as §3

Veronica persica (VERPE) [20] = assay: Herbicidal pre-emergence action, test C (Table C12); details: dosage 1280 g/ha, visual scoring vs untreated controls
How it was run: as §3

[21] = tested on: harmful plants ABUTH, AMARE, ECHCG, LOLRI, MATIN, POAAN, SETVI, STEME, ALOMY, DIGSA, KCHSC and VERPE; assay: Herbicidal post-emergence action, summary of Tables B1-B12; details: application rate of 1280 or 320 g of active ingredient per hectare; summary in words
How it was run: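 Activity scored by eye roughly 3 weeks post-treatment against untreated plants, from 0% (no effect) to 100% (plants dead). Application rates were 1280 or 320 g/ha, as aqueous WP/EC spray plus 0.5% additive at 600 L/ha, onto one-leaf-stage weeds grown 2–3 weeks in sandy loam.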

[22] = tested on: harmful plants ABUTH, AMARE, ECHCG, LOLRI, MATIN, POAAN, SETVI, STEME, ALOMY, DIGSA, KCHSC and VERPE; assay: Herbicidal pre-emergence action (test C), summary of Tables C1-C12; details: application rate of 1280 or 320 g of active ingredient per hectare; summary in words
How it was run: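 Visual % damage versus untreated plants (0% = like control, 100% = died) was scored after about 3 weeks in the greenhouse. Before emergence, seeds sown in sandy loam got a soil-surface spray of compound as WP or EC plus 0.5% additive, using 600 L/ha water at rates of 1280 or 320 g/ha.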

## FC(F)(F)c1ccnc(-c2ccccc2Oc2ccc(Cl)cn2)c1 [Example 1-70]
Agrostis tenuis (AGSTE)
  Early post-emergence effect against Agrostis tenuis (AGSTE): 100%
Poa annua (POAAN) [1]
  Early post-emergence effect against Poa annua (POAAN): 100%
[2]
  herbicidal activity against the harmful plants of Tables A1-A8 in early post-emergence treatment: very good herbicidal activity

## COc1ccc(-c2cc(C(F)F)no2)c(Oc2ncc(Cl)cc2F)c1 [Example 1-37]
Poa annua (POAAN) [1]
  Early post-emergence effect against Poa annua (POAAN): 80%
[2]
  herbicidal activity against the harmful plants of Tables A1-A8 in early post-emergence treatment: very good herbicidal activity

## Cc1cc(F)c(-c2cc(C(F)F)no2)c(Oc2ncc(Cl)cc2F)c1 [Example 1-89]
Poa annua (POAAN) [3]; 320 g/ha
  Post-emergence action against Poa annua (POAAN): 100%
Poa annua (POAAN) [3]; 1280 g/ha
  Post-emergence action against Poa annua (POAAN): 100%
[4]; 320 g/ha
  Post-emergence action against Abutilon theophrasti (ABUTH): 100%
[4]; 1280 g/ha
  Post-emergence action against Abutilon theophrasti (ABUTH): 100%
[5]; dosage 320 g/ha
  Post-emergence action against Amaranthus retroflexus (AMARE): 100%
[5]; dosage 1280 g/ha
  Post-emergence action against Amaranthus retroflexus (AMARE): 100%
[6]; 320 g/ha
  Post-emergence action against Matricaria inodora (MATIN): 100%
[6]; 1280 g/ha
  Post-emergence action against Matricaria inodora (MATIN): 100%
Stellaria media (STEME) [7]; dosage 320 g/ha
  Post-emergence action against Stellaria media (STEME): 100%
Stellaria media (STEME) [7]; dosage 1280 g/ha
  Post-emergence action against Stellaria media (STEME): 100%
[8]; 320 g/ha
  Post-emergence action against Alopecurus myosuroides (ALOMY): 100%
[8]; 1280 g/ha
  Post-emergence action against Alopecurus myosuroides (ALOMY): 100%
[9]
  Post-emergence action against Digitaria sanguinalis (DIGSA): 100%
Bassia scoparia (KCHSC) [10]; dosage 320 g/ha
  Post-emergence action against Bassia scoparia (KCHSC): 90%
Bassia scoparia (KCHSC) [10]; dosage 1280 g/ha
  Post-emergence action against Bassia scoparia (KCHSC): 100%
Veronica persica (VERPE) [11]; dosage 320 g/ha
  Post-emergence action against Veronica persica (VERPE): 100%
Veronica persica (VERPE) [11]; dosage 1280 g/ha
  Post-emergence action against Veronica persica (VERPE): 100%
Poa annua (POAAN) [12]; dosage 320 g/ha
  Pre-emergence action against Poa annua (POAAN): 90%
Poa annua (POAAN) [12]; dosage 1280 g/ha
  Pre-emergence action against Poa annua (POAAN): 100%
Setaria viridis (SETVI); dosage 320 g/ha
  Pre-emergence action against Setaria viridis (SETVI): 100%
Setaria viridis (SETVI); dosage 1280 g/ha
  Pre-emergence action against Setaria viridis (SETVI): 100%
[13]
  Pre-emergence action against Abutilon theophrasti (ABUTH): 90%
[14]; dosage 320 g/ha
  Pre-emergence action against Amaranthus retroflexus (AMARE): 100%
[14]; dosage 1280 g/ha
  Pre-emergence action against Amaranthus retroflexus (AMARE): 100%
[15]; dosage 320 g/ha
  Pre-emergence action against Matricaria inodora (MATIN): 90%
[15]; dosage 1280 g/ha
  Pre-emergence action against Matricaria inodora (MATIN): 90%
Stellaria media (STEME) [16]; dosage 320 g/ha
  Pre-emergence action against Stellaria media (STEME): 90%
Stellaria media (STEME) [16]; dosage 1280 g/ha
  Pre-emergence action against Stellaria media (STEME): 90%
[17]
  Pre-emergence action against Alopecurus myosuroides (ALOMY): 100%
[18]; dosage 320 g/ha
  Pre-emergence action against Digitaria sanguinalis (DIGSA): 90%
[18]; dosage 1280 g/ha
  Pre-emergence action against Digitaria sanguinalis (DIGSA): 100%
Bassia scoparia (KCHSC) [19]
  Pre-emergence action against Bassia scoparia (KCHSC): 90%
Veronica persica (VERPE) [20]
  Pre-emergence action against Veronica persica (VERPE): 90%
[21]
  herbicidal activity against the harmful plants of Tables B1-B12 in post-emergence treatment: very good herbicidal activity
[22]
  herbicidal activity against the harmful plants of Tables C1-C12 in pre-emergence treatment: very good herbicidal activity

— US12052991B2, “Substituted pyridinyloxybenzenes and salts thereof and use thereof as herbicidal agents” (Bayer Aktiengesellschaft, priority 2018, dated 2024)
